37 compounds from patent publication US11261186B2, “Biaryl derivative as GPR120 agonist” (LG CHEM, LTD., priority 2014, dated 2022) can be followed below.

The target in the assay is T1, hGPR120 (Homo sapiens, UniProt Q5NUL3).
T1 construct: expressed in transfected cells; host or cells: CHO-K1
T1 sequence (Q5NUL3 1-361): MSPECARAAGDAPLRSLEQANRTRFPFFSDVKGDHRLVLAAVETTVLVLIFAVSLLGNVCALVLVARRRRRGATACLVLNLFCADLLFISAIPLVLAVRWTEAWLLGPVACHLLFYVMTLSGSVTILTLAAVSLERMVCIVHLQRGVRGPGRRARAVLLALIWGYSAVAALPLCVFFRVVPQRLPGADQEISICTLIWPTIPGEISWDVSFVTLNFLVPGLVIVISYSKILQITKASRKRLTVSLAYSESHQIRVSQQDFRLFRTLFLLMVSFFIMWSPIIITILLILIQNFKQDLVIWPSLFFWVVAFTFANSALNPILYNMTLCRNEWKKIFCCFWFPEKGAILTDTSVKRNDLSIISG
The assay is described as follows: Measurement of Activity of GPR120 Agonist (Cell-Based Assay), Calcium 5 dye fluorescence. The note with it: CHO-K1 cells expressing Ga16 and hGPR120. How it is done:
CHO-K1 cells expressing Ga16 and hGPR120 were dispensed into each well of a 96-well plate (3×10^4 cells/100 μl/well) and then incubated in 5% CO2, 37° C. incubator for 18 hours. Each well was treated with 100 μl of Calcium 5 dye (Molecular Devices) solution including 2% DMSO and then incubated in 5% CO2, 37° C. incubator for 1 hour. Serially diluted GPR120 agonists were prepared to a final concentration of 0.5% DMSO in a 96-well plate. Each well was treated with 50 μl of the agonist compounds using Plexstation II, and then fluorescence was measured at Ex 485 nm and Em 525 nm.
Fluorescence increased by the serially diluted GPR120 agonists is calculated as a relative percent (%) value based on the fluorescence represented by the treatment of 1% DMSO only. […] The calculation of measurement was carried out by using statistical software (Prizm).
Activity is denoted based on the following criteria: […]

Consider `CC(C)(CCCC(=O)O)c1ccc(-c2cccnc2OC2CCCC2)cc1` [Example 160, 5-[4-(2-cyclopentyloxy-pyridin-3-yl)-phenyl]-5-methyl-hexanoic acid], for which the EC50 was under 200 nM. For `CN(CCCC(=O)O)c1c(F)cc(-c2cccnc2OC2CCCC2)cc1F` [Example 196, 4-{[4-(2-cyclopentyloxy-pyridin-3-yl)-2,6-difluoro-phenyl]-methyl-amino}-butyric acid] the value was under 200 nM; for `O=C(O)CCCCc1c(F)cc(-c2cccnc2SC2CCC2)cc1F` [Example 35, 5-[4-(2-cyclobutylsulfanyl-3-pyridyl)-2,6-difluoro-phenyl]pentanoic acid], under 200 nM; for `CC(CCCCC(=O)O)c1c(F)cc(-c2cccnc2OC2CCCC2)cc1F` (stereo not shown) [Example 237, 6-[4-(2-cyclopentyloxy-pyridin-3-yl)-2,6-difluoro-phenyl]-heptanoic acid], under 200 nM. For `O=C(O)CCCOc1c(F)cc(-c2ccc(COCC3CC3)s2)cc1F` [Example 565, 4-[4-(5-cyclopropylmethoxymethyl-thiophen-2-yl)-2,6-difluoro-phenoxy]-butanoic acid] the value was under 200 nM; for `O=C(O)CCCC(F)(F)c1ccc(-c2cccc(OC3CCC3)n2)cc1` [Example 186, 5-[4-(6-cyclobutoxy-pyridin-2-yl)-phenyl]-5,5-difluoro-pentanoic acid], under 200 nM; for `O=C(O)CC1CCN(c2c(F)cc(-c3cccc(OCC4CC4)n3)cc2F)C1` (stereo not shown) [Example 560, {1-[4-(6-cyclopropylmethoxy-pyridin-2-yl)-2,6-difluoro-phenyl]-pyrrolidin-3-yl}-acetic acid], under 200 nM. For `O=C(O)CCCC(F)(F)c1ccc(-c2cccnc2SC2CCCC2)cc1` [Example 184, 5-[4-(2-cyclopentylsulfanyl-pyridin-3-yl)-phenyl]-5,5-difluoro-pentanoic acid], the concentration giving a half-maximal response (EC50) is under 200 nM. With `O=C(O)CC1CN(c2c(F)cc(-c3cncc(OC4CCC4)n3)cc2F)C1` [Example 334, 2-[1-[4-[6-(cyclobutoxy)pyrazin-2-yl]-2,6-difluoro-phenyl]azetidin-3-yl]acetic acid], the EC50 is under 200 nM.

In the case of `O=C(O)CCCOc1c(F)cc(-c2cncc(OC3CCC3)n2)cc1Cl` [Example 430, 4-[2-chloro-4-(6-cyclobutoxy-pyrazin-2-yl)-6-fluoro-phenoxy]-butyric acid], the EC50 was under 200 nM.

Regarding `CC(C)(CCCC(=O)O)c1ccc(-c2cccnc2SC2CCCC2)cc1` [Example 163, 5-[4-(2-cyclopentylsulfanyl-pyridin-3-yl)-phenyl]-5-methyl-hexanoic acid], the EC50 was 200 to 2000 nM. With `O=C(O)C1CC1COc1c(F)cc(-c2nccc(OC3CCC3)n2)cc1F` (stereo not shown) [Example 543, 2-[4-(4-cyclobutoxy-pyrimidin-2-yl)-2,6-difluoro-phenoxymethyl]-cyclopropanecarboxylic acid], the EC50 is under 200 nM. For `O=C(O)CCc1ccc2cc(-c3cccc(SC4CCCC4)n3)ccc2c1` [Example 143, 3-[6-(6-cyclopentylsulfanyl-pyridin-2-yl)-naphthalen-2-yl]-propanoic acid] the value was 2000 to 20000 nM; for `CC(C)CNc1cncc(-c2cc(F)c(N3CCC(CC(=O)O)CC3)c(F)c2)n1` [Example 356, 2-[1-[2,6-difluoro-4-[6-(isobutylamino)pyrazin-2-yl]phenyl]-4-piperidyl]acetic acid], 200 to 2000 nM. In the case of `O=C(O)CCC1CC1c1c(F)cc(-c2cccnc2OC2CCOCC2)cc1F` (stereo not shown) [Example 190, 3-(2-{2,6-difluoro-4-[2-(tetrahydro-pyran-4-yloxy)-pyridin-3-yl]-phenyl}-cyclopropyl)-propanoic acid] it was 200 to 2000 nM; in that of `CC(C)(CCCC(=O)O)c1c(F)cc(-c2cccnc2OC2CCCC2)cc1F` [Example 162, 5-[4-(2-cyclopentyloxy-pyridin-3-yl)-2,6-difluoro-phenyl]-5-methyl-hexanoic acid], 200 to 2000 nM. Regarding `O=C(O)CC1CCN(c2c(F)cc(-c3ncc(F)c(OCC4CC4)n3)cc2F)CC1` [Example 372, 2-[1-[4-[4-(cyclopropylmethoxy)-5-fluoro-pyrimidin-2-yl]-2,6-difluoro-phenyl]-4-piperidyl]acetic acid], the half-maximal effective concentration (EC50) was under 200 nM. Regarding `COCCOc1cc(C)nc(-c2cc(F)c(N3CCC(CC(=O)O)CC3)c(F)c2)n1` [Example 602, (1-{2,6-difluoro-4-[4-(2-methoxy-ethoxy)-6-methyl-pyrimidin-2-yl]-phenyl}-piperidin-4-yl)-acetic acid], the EC50 fell in the range of 200 to 2000 nM. For `CC(C)Sc1cccc(-c2cc(F)c(N3CC(CC(=O)O)C3)c(F)c2)n1` [Example 114, 2-[1-[2,6-difluoro-4-(6-isopropylsulfanyl-2-pyridyl)phenyl]azetidin-3-yl]acetic acid] the value was under 200 nM.

Take `Fc1cc(-c2cccnc2SC2CCC2)cc(F)c1OCCCc1nnn[nH]1` [Example 25, 2-cyclobutylsulfanyl-3-{3,5-difluoro-4-[3-(1H-tetrazol-5-yl)propoxy]phenyl}pyridin]: the concentration for a half-maximal effect (EC50) was in the range of 200 to 2000 nM.

As to `O=C(O)CCCCc1ccc(-c2cccc(SC3CCCC3)n2)cc1` [Example 28, 5-[4-(6-cyclopentylsulfanyl-2-pyridyl)phenyl]pentanoic acid], the concentration giving a half-maximal response (EC50) was under 200 nM.

As to `Cc1cc(OCC2CC2)nc(-c2cc(F)c(OCC3CC3C(=O)O)c(F)c2)n1` (stereo not shown) [Example 546, 2-[4-(4-cyclopropylmethoxy-6-methyl-pyrimidin-2-yl)-2,6-difluoro-phenoxymethyl]-cyclopropanecarboxylic acid], the EC50 was 200 to 2000 nM.

Turning to `O=C(O)CC1CCN(c2c(F)cc(-c3cccc(OC4CCSCC4)n3)cc2F)C1` (stereo not shown) [Example 596], the EC50 fell in the range of 200 to 2000 nM.

In the case of `CC(CCCC(=O)O)c1c(F)cc(-c2cccc(OC3CCCC3)n2)cc1F` (stereo not shown) [Example 56, 5-[4-(6-cyclopentoxy-2-pyridyl)-2,6-difluoro-phenyl]hexanoic acid], the concentration for a half-maximal effect (EC50) was under 200 nM. Turning to `O=C(O)CCCSc1c(F)cc(-c2cccc3c2OC(F)(F)O3)cc1F` [Example 153, 4-[4-(2,2-difluoro-benzo[1,3]dioxol-4-yl)-2,6-difluoro-phenylsulfanyl]-butyric acid], the EC50 is under 200 nM. For the compound `COc1ccc(-c2cc(F)c(C(C)CCCC(=O)O)c(F)c2)c2c1OC(C)(C)C2` (stereo not shown) [Example 260], the concentration for a half-maximal effect (EC50) is under 200 nM. With `O=C(O)CCCOc1c(F)cc(-c2cccc(SC3CCC3)n2)cc1Cl` [Example 403, 4-[2-chloro-4-(6-cyclobutylsulfanyl-pyridin-2-yl)-6-fluoro-phenoxy]-butyric acid], the EC50 was under 200 nM. For `CCCSc1ncccc1-c1cc(F)c(CCCCC(=O)O)c(F)c1` [Example 31, 5-[2,6-difluoro-4-(2-propylsulfanyl-3-pyridyl)phenyl]pentanoic acid] the value was under 200 nM. For the compound `CC(C)Sc1ncccc1-c1cc(F)c(NCCCCC(=O)O)c(F)c1` [Example 97, 5-[2,6-difluoro-4-(2-isopropylsulfanyl-3-pyridyl)anilino]pentanoic acid], the concentration giving a half-maximal response (EC50) is under 200 nM. Regarding `O=C(O)CC1CCN(c2c(F)cc(-c3cccc(OC4CCCC4)n3)cc2F)CC1` [Example 299, 2-[1-[4-[6-(cyclopentoxy)-2-pyridyl]-2,6-difluoro-phenyl]-4-piperidyl]acetic acid], the EC50 is 200 to 2000 nM.

For the compound `O=C(O)Cc1cnn(-c2ccc(-c3cccnc3SC3CCC3)cc2)c1` [Example 93, 2-[1-[4-(2-cyclobutylsulfanyl-3-pyridyl)phenyl]pyrazol-4-yl]acetic acid], the half-maximal effective concentration (EC50) was 2000 to 20000 nM. For `O=C(O)CCC1CCc2cc(-c3cccc4c3OC3(CCCC3)C4)ccc2S1` (stereo not shown) [Example 283, 3-(6-spiro[3H-benzofuran-2,1′-cyclopentan]-7-yl-thiochroman-2-yl)-propionic acid] the value was 200 to 2000 nM. Turning to `Cc1nc(COCC2CC2)c(-c2cc(F)c(N3CCC(CC(=O)O)CC3)c(F)c2)s1` [Example 570, {1-[4-(4-cyclopropylmethoxymethyl-2-methyl-thiazol-5-yl)-2,6-difluoro-phenyl]-piperidin-4-yl}-acetic acid], the EC50 lay within 200 to 2000 nM. In the case of `O=C(O)CCCC1(c2c(F)cc(-c3cccc(OCC4CC4)n3)cc2F)CC1` [Example 170, 4-{1-[4-(6-cyclopropylmethoxy-pyridin-2-yl)-2,6-difluoro-phenyl]-cyclopropyl}-butyric acid], the EC50 is under 200 nM.

`O=C(O)CCCCc1c(F)cc(-c2cccnc2OC2CCCC2)cc1F` [Example 37, 5-[4-(2-cyclopentoxy-3-pyridyl)-2,6-difluoro-phenyl]pentanoic acid]: the EC50 was under 200 nM. For `O=C(O)COc1ccc2cc(-c3cccnc3OC3CCCC3)ccc2c1` [Example 4, [6-(2-cyclopentyloxy-pyridin-3-yl)-naphthalen-2-yloxy]-acetic acid] the value was 2000 to 20000 nM. Regarding `O=C(O)CCCC(F)(F)c1ccc(-c2cc(F)cc(OC3CCC3)c2)cc1` [Example 414, 5-(5′-cyclobutoxy-3′-fluoro-biphenyl-4-yl)-5,5-difluoro-pentanoic acid], the EC50 was under 200 nM.

Usually EC50 stands for the midpoint of the concentration-response curve.
